# Measurements from paper PMC10108347, “Heterobifunctional Ligase Recruiters Enable pan-Degradation of Inhibitor of Apoptosis Proteins” (Journal of Medicinal Chemistry, 2023).
# Values joined by “and” are separate entries in the source; they are usually repeats but may differ in a detail not shown here. Equal entries are not always repeated.
# Tested on: MM.1S cells proteome
# Experiment: diaPASEF quantitative proteomics in MM.1S cells: proteome-wide degradation selectivity (other proteins)
# Format: cell-based, human
# Settings: for Precursor intensity (DIA-NN), CLPX precursor AAAAADLANR2: CLPX_HUMAN (O76031), ATP-dependent Clp protease ATP-binding subunit clpX-like, mitochondrial; for Precursor intensity (DIA-NN), SAMD1 precursor AAAAAATAPPSPGPAQPGPR2: SAMD1_HUMAN (Q6SPF0), Atherin; for Precursor intensity (DIA-NN), ZFP91 precursor AAAAAAAAAVSR2: ZFP91_HUMAN (Q96JP5), E3 ubiquitin-protein ligase ZFP91
# Description: To analyze the proteome-wide degradation selectivity of hetero-PROTACs 9, 25, and 27, a diaPASEF-based mass spectrometry approach was employed.[54] MM.1S cells were treated with 100 nM PROTACs for 3 h. […] Accordingly, global proteomic plots show the mathematically imputed levels of IAP proteins in treatment groups if the corresponding IAP was detected in the control treatment (see also Experimental Section).
# MM1s cells were treated with DMSO or 0.1 μM of compound for 3 h. The cells were harvested by centrifugation and washed with phosphate-buffered saline before snap-freezing in liquid nitrogen. The cells were lysed by addition of lysis buffer (8 M urea, 50 mM NaCl, 50 mM 4-(2-hydroxyethyl)-1-piperazine-ethanesulfonic acid (EPPS) pH 8.5, protease, and phosphatase inhibitors) and homogenization by bead beating (BioSpec) for three repeats of 30 s at 2400. Bradford assay was used to determine the final protein concentration in the clarified cell lysate. 50 μg of protein for each sample was reduced, alkylated, and precipitated using methanol/chloroform as previously described,[64] and the resulting washed precipitated protein was allowed to air dry. The precipitated protein was resuspended in 4 M urea, 50 mM HEPES pH 7.4, followed by dilution to 1 M urea with the addition of 200 mM EPPS, pH 8. […] The LysC digestion was diluted to 0.5 M urea with 200 mM EPPS pH 8, followed by digestion with trypsin (1:50; enzyme/protein) for 6 h at 37 °C. Sample digests were acidified with formic acid to a pH of 2–3 prior to desalting using C18 solid-phase extraction plates (SOLA, Thermo Fisher Scientific). Desalted peptides were dried in a vacuum centrifuge and reconstituted in 0.1% formic acid for LC–MS analysis.
# Data were collected using a TimsTOF Pro2 (Bruker Daltonics, Bremen, Germany) coupled to a nanoElute LC pump (Bruker Daltonics, Bremen, Germany) via a CaptiveSpray nanoelectrospray source. […] Peptides were separated using a 50 min gradient of 2–30% buffer B (acetonitrile in 0.1% formic acid) with a flow rate of 250 nL/min and column temperature maintained at 50 °C.
# Data-Dependent Acquisition (DDA) was performed in the Parallel Accumulation-Serial Fragmentation (PASEF) mode to determine effective ion mobility windows for downstream diaPASEF data collection.[54] The diaPASEF parameters included 100% duty cycle using accumulation and ramp times of 50 ms each, 1 TIMS-MS scan, and 10 PASEF ramps per acquisition cycle. The TIMS-MS survey scan was acquired between 100–1700 m/z and 1/K0 of 0.7–1.3 V × s/cm^2. Precursors with 1–5 charges were selected, and those that reached an intensity threshold of 20,000 arbitrary units were actively excluded for 0.4 min. The quadrupole isolation width was set to 2 m/z for m/z < 700 and 3 m/z for m/z > 800, with the m/z between 700 and 800 m/z being interpolated linearly. […] To perform diaPASEF, the precursor distribution in the DDA m/z-ion mobility plane was used to design an acquisition scheme for DIA data collection, which included two windows in each 50 ms diaPASEF scan. Data was acquired using 16 of these 25 Da precursor double window scans (creating 32 windows), which covered the diagonal scan line for doubly and triply charged precursors, with singly charged precursors able to be excluded by their position in the m/z-ion mobility plane. These precursor isolation windows were defined between 400–1200 m/z and 1/K0 of 0.7–1.3 V × s/cm^2.
# The diaPASEF raw file processing and controlling peptide and protein level false discovery rates, assembling proteins from peptides, and protein quantification from peptides were performed using library-free analysis in DIA-NN 1.8.[65] The library-free mode performs an in silico digestion of a given protein sequence database alongside deep learning-based predictions to extract the DIA precursor data into a collection of MS^2 spectra.
# [1] = precursor charge 2, per-replicate values (rep1, rep2), listed as SAB141
# [2] = MM.1S cells, 0.1 μM, 3 h, log2 fold change compound vs CTRLs (limma)
# [3] = RL4_HUMAN (P36578), 60S ribosomal protein L4, precursor charge 1, per-replicate values (rep1, rep2)
# [4] = precursor charge 2, per-replicate values (rep1, rep2), listed as Gue3582
# [5] = precursor charge 2, per-replicate values (rep1, rep2)
structure (smiles),measurement,setting,value
"CN[C@@H](C)C(=O)N[C@H](C(=O)N1C[C@@H](Oc2cccc(OCCOCCCCCCOCCCCCCNc3cccc4c3C(=O)N(C3CCC(=O)NC3=O)C4=O)c2)C[C@H]1C(=O)N[C@@H]1CCCc2ccccc21)C1CCCCC1 (stereo partly drawn) [PROTAC 25, (2S,4S)-1-((S)-2-Cyclohexyl-2-((S)-2-(methylamino)propanamido)acetyl)-4-(3-(2-((6-((6-((2-(2,6-dioxopiperidin-3-yl)-1,3-dioxoisoindolin-4-yl)amino)hexyl)oxy)hexyl)oxy)ethoxy)phenoxy)-N-((R)-1,2,3,4-tetrahydronaphthalen-1-yl)pyrrolidine-2-carboxamide]","Precursor intensity (DIA-NN), CLPX precursor AAAAADLANR2",[1],7987.33 and 21462.9
same,logFC COX5A,[2],-0.5474
same,logFC LMAN2,[2],-0.1147
same,logFC TOP1,[2],0.3058
same,"Precursor intensity (DIA-NN), RPL4 precursor […]1",[3],321.394
same,"Precursor intensity (DIA-NN), RPL4 precursor […]2","RL4_HUMAN (P36578), 60S ribosomal protein L4, precursor charge 2, per-replicate values (rep1, rep2), listed as SAB141",467864 and 464908
same,"Precursor intensity (DIA-NN), SAMD1 precursor AAAAAATAPPSPGPAQPGPR2",[1],14133.9 and 10400.6
same,"Precursor intensity (DIA-NN), ZFP91 precursor AAAAAAAAAVSR2",[1],72214.7 and 61349
"CN[C@@H](C)C(=O)N[C@H](C(=O)N1C[C@@H](Oc2cccc(OCCCCC(=O)N[C@H](C(=O)N3C[C@H](O)C[C@H]3C(=O)N[C@@H](C)c3ccc(-c4scnc4C)cc3)C(C)(C)C)c2)C[C@H]1C(=O)N[C@@H]1CCCc2ccccc21)C1CCCCC1 [PROTAC 9, (2S,4S)-1-((S)-2-Cyclohexyl-2-((S)-2-(methylamino)propanamido)acetyl)-4-(3-((5-(((S)-1-((2S,4R)-4-hydroxy-2-(((S)-1-(4-(4-methylthiazol-5-yl)phenyl)ethyl)carbamoyl)pyrrolidin-1-yl)-3,3-dimethyl-1-oxobutan-2-yl)amino)-5-oxopentyl)oxy)phenoxy)-N-((R)-1,2,3,4-tetrahydronaphthalen-1-yl)pyrrolidine-2-carboxamide]","Precursor intensity (DIA-NN), CLPX precursor AAAAADLANR2",[4],27158.9 and 21797.6
same,logFC EIF1AX,[2],0.2289
same,logFC SIGMAR1,[2],0.1571
same,logFC TAF15,[2],0.09552
same,logFC TOP1,[2],0.1861
same,"Precursor intensity (DIA-NN), RPL4 precursor AAAAAAALQAK1","RL4_HUMAN (P36578), 60S ribosomal protein L4, precursor charge 1, per-replicate values (rep1, rep2), listed as Gue3582",83.0044 and 593.705
same,"Precursor intensity (DIA-NN), RPL4 precursor AAAAAAALQAK2","RL4_HUMAN (P36578), 60S ribosomal protein L4, precursor charge 2, per-replicate values (rep1, rep2), listed as Gue3582",450548 and 462008
same,"Precursor intensity (DIA-NN), SAMD1 precursor AAAAAATAPPSPGPAQPGPR2",[4],15172 and 13054.7
same,"Precursor intensity (DIA-NN), ZFP91 precursor AAAAAAAAAVSR2",[4],70631.3 and 75175.8
"CN[C@@H](C)C(=O)N[C@@H](C(=O)N1CCC[C@H]1C(=O)N[C@@H]1c2ccccc2C[C@@H]1OCC#CC#CCO[C@H]1Cc2ccccc2[C@H]1NC(=O)[C@@H]1CCCN1C(=O)[C@H](NC(=O)[C@H](C)NC)C1CCCCC1)C1CCCCC1 [AZD5582, reference compound]","Precursor intensity (DIA-NN), CLPX precursor AAAAADLANR2",[5],16915 and 25995.2
same,logFC ATP5MD,[2],-0.4905
same,logFC CD44,[2],-0.09493
same,logFC EDF1,[2],-0.1747
same,logFC GOT2,[2],-0.1164
same,logFC RRP15,[2],-0.3053
same,"Precursor intensity (DIA-NN), RPL4 precursor AAAAAAALQAK1",[3],331.845
same,"Precursor intensity (DIA-NN), RPL4 precursor AAAAAAALQAK2","RL4_HUMAN (P36578), 60S ribosomal protein L4, precursor charge 2, per-replicate values (rep1, rep2)",447305 and 464651
same,"Precursor intensity (DIA-NN), SAMD1 precursor AAAAAATAPPSPGPAQPGPR2",[5],15006.1 and 13237.9
same,"Precursor intensity (DIA-NN), ZFP91 precursor AAAAAAAAAVSR2",[5],67729.2 and 74323
"CN[C@@H](C)C(=O)N[C@H](C(=O)N1C[C@@H](Oc2cccc(OCCCCCCOCCCCCCOCCCCCCNc3cccc4c3C(=O)N(C3CCC(=O)NC3=O)C4=O)c2)C[C@H]1C(=O)N[C@@H]1CCCc2ccccc21)C1CCCCC1 (stereo partly drawn) [PROTAC 27, (2S,4S)-1-((S)-2-Cyclohexyl-2-((S)-2-(methylamino)propanamido)acetyl)-4-(3-((6-((6-((6-((2-(2,6-dioxopiperidin-3-yl)-1,3-dioxoisoindolin-4-yl)amino)hexyl)oxy)hexyl)oxy)hexyl)oxy)phenoxy)-N-((R)-1,2,3,4-tetrahydronaphthalen-1-yl)pyrrolidine-2-carboxamide]",logFC COX6C,[2],-0.5143
same,logFC EIF4B,[2],-0.1592
same,logFC HNRNPA2B1,[2],-0.1781
same,logFC POTEJ,[2],-0.3899
same,logFC TPM3,[2],-0.214
